Results: patent US11365199B2, “Pyrazole compounds as modulators of FSHR and uses thereof” (Merck Patent GmbH, priority 2013, dated 2022)
Where two headings read alike, the source gives them in different places.

Target: T1, FSHR (Homo sapiens, UniProt P23945)
T1 construct: expressed in transfected cells; host or cells: CHO (Cho-FSHR-LUC-1-1-43)
T1 sequence (P23945 18-695): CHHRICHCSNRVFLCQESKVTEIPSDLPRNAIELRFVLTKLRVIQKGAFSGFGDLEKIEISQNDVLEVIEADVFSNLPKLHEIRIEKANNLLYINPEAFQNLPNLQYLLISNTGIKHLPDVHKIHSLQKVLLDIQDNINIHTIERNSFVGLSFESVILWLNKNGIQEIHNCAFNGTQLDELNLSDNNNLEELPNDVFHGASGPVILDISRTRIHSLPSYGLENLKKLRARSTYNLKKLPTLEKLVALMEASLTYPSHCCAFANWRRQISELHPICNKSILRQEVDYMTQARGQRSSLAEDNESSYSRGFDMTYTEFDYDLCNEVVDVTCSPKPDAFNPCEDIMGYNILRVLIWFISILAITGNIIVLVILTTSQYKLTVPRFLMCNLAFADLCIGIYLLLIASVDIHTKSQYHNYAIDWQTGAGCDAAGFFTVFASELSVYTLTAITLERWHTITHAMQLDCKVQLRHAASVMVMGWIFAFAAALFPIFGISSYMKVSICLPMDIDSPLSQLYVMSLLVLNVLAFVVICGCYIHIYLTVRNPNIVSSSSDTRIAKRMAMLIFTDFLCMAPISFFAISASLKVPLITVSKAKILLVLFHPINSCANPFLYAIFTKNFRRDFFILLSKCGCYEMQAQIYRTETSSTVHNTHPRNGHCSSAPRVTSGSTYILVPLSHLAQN
Experiment: EC50 of cyclic AMP production in CHO FSHR cells + EC20 FSH (Assay A)
Assay type: cell-based
Procedure, shortened: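 cAMP HTRF read-out (665 nm/620 nm ratio) after 1 h at 37° C of Cho-FSHR-LUC cells treated with serially diluted test compound plus EC20 FSH ([…]) and IBMX (final 200 μM). Responses given as percent of maximal FSH-standard effect.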

[1] = CHO FSHR cells + EC20 FSH, cAMP HTRF, read-out: Assay A: EC50 of cyclic AMP production

| EC50 [1] [nM] | Compound | EC50 [nM] |
| --- | --- | --- |
| 100 to 1000 | COc1cc2c(cc1C=C(C)C)-c1c(c(C(=O)N3CCC[C@@H](C(=O)N4CCC4)CC3)nn1-c1ccsc1)CO2 [Compound 45, [(R)-4-(Azetidine-1-carbonyl)-azepan-1-yl]-[7-methoxy-8-(2-methyl-propenyl)-1-thiophen-3-yl-1,4-dihydro-chromeno[4,3-c]pyrazol-3-yl]-methanone] |  |
| 1000 to 5000 | COc1cc2c(cc1CN)-c1c(c(C(=O)N3CCOCC3(C)C)nn1-c1ccsc1)CO2 [Compound 166, (8-Aminomethyl-7-methoxy-1-thiophen-3-yl-1,4-dihydro-chromeno[4,3-c]pyrazol-3-yl)-(3,3-dimethyl-morpholin-4-yl)-methanone] |  |
| 100 to 1000 | COc1cc2c(cc1C=C(C)C)-c1c(c(C(=O)N3CCC34COC4)nn1-c1ccsc1)CO2 [Compound 44, [7-Methoxy-8-(2-methyl-propenyl)-1-thiophen-3-yl-1,4-dihydro-chromeno[4,3-c]pyrazol-3-yl]-(6-oxa-1-aza-spiro[3.3]hept-1-yl)-methanone] |  |
| 1000 to 5000 | [2H]C([2H])([2H])O[C@@H]1CC[C@H](N(C(=O)c2nn(-c3ccsc3)c3c2COc2cc(OC)c(-c4ccn(C)n4)cc2-3)C([2H])([2H])[2H])C1 [Compound 177] |  |
| 100 to 1000 | [2H]C([2H])([2H])OC1CCN(C(=O)c2nn(-c3ccsc3)c3c2COc2cc(OC)c(C=C(C)C)cc2-3)C1 (stereo not shown) [Compound 49] |  |
| < 100 | COc1cc2c(cc1-c1ccn(C)c1)-c1c(c(C(=O)O[C@H]3CC[C@H](N)C3)nn1-c1ccsc1)CO2 [Compound 181, 7-Methoxy-8-(1-methyl-1H-pyrrol-3-yl)-1-thiophen-3-yl-1,4-dihydro-chromeno[4,3-c]pyrazole-3-carboxylic Acid (1S,3S)-3-amino-cyclopentyl Ester] |  |
| > 5000 | COc1cc2c(cc1C=C(C)C)-c1c(c(C(=O)NCCCNC(C)=O)nn1-c1ccsc1)CO2 [Compound 8, 7-Methoxy-8-(2-methyl-propenyl)-1-thiophen-3-yl-1,4-dihydro-chromeno[4,3-c]pyrazole-3-carboxylic acid (3-acetylamino-propyl)-amide] |  |
| 1000 to 5000 | [2H]C([2H])([2H])O[C@@H]1CC[C@H](N(C(=O)c2nn(-c3ccsc3)c3c2COc2cc(OC)c(-c4ccn(C)c4)cc2-3)C([2H])([2H])[2H])C1 [Compound 178] |  |
| < 100 | COc1cc2c(cc1-c1ccn(C)c1)-c1c(c(C(=O)N3CCCC3(C)CO)nn1-c1ccsc1)CO2 (stereo not shown) [Compound 176, (2-Hydroxymethyl-2-methyl-pyrrolidin-1-yl)-[7-methoxy-8-(1-methyl-1H-pyrrol-3-yl)-1-thiophen-3-yl-1,4-dihydro-chromeno[4,3-c]pyrazol-3-yl]-methanone] |  |
| > 5000 | [2H]C([2H])([2H])O[C@H]1CC[C@H](N(C(=O)c2nn(-c3ccsc3)c3c2COc2cc(OC)c(-c4ccn(C)n4)cc2-3)C([2H])([2H])[2H])C1 [Compound 196] |  |
| < 100 | COc1cc2c(cc1C=C(C)C)-c1c(c(C(=O)N(C)C(C)(C)CO)nn1-c1ccsc1)CO2 [Compound 40, 7-Methoxy-8-(2-methyl-propenyl)-1-thiophen-3-yl-1,4-dihydro-chromeno[4,3-c]pyrazole-3-carboxylic acid (2-hydroxy-1,1-dimethyl-ethyl)-methyl-amide] |  |

Continued, compound first:

| Compound | EC50 [1] [nM] | EC50 [nM] |
| --- | --- | --- |
| COc1cc2c(cc1-c1cnn(CCN3CCCC3)c1)-c1c(c(C(=O)N3CCOCC3(C)C)nn1-c1ccsc1)CO2 [Compound 206, (3,3-Dimethyl-morpholin-4-yl)-{7-methoxy-8-[1-(2-pyrrolidin-1-yl-ethyl)-1H-pyrazol-4-yl]-1-thiophen-3-yl-1,4-dihydro-chromeno[4,3-c]pyrazol-3-yl}-methanone] | 100 to 1000 |  |
| COc1cc2c(cc1-c1cncnc1)-c1c(c(C(=O)N(C)C(C)(C)C)nn1-c1ccsc1)CO2 [Compound 70, 7-Methoxy-8-pyrimidin-5-yl-1-thiophen-3-yl-1,4-dihydro-chromeno[4,3-c]pyrazole-3-carboxylic acid tert-butyl-methyl-amide] | < 100 |  |
| COc1cc2c(cc1-c1ccn(C)c1)-c1c(c(C(=O)N(C)C3COC3)nn1-c1ccsc1)CO2 [Compound 103, 7-Methoxy-8-(1-methyl-1H-pyrrol-3-yl)-1-thiophen-3-yl-1,4-dihydro-chromeno[4,3-c]pyrazole-3-carboxylic acid methyl-oxetan-3-yl-amide] | 100 to 1000 |  |
| COc1cc2c(cc1-c1ccn(C)n1)-c1c(c(C(=O)N(C)C3COC3)nn1-c1ccsc1)CO2 [Compound 104, 7-Methoxy-8-(1-methyl-1H-pyrazol-3-yl)-1-thiophen-3-yl-1,4-dihydro-chromeno[4,3-c]pyrazole-3-carboxylic acid methyl-oxetan-3-yl-amide] | 1000 to 5000 |  |
| COc1cc2c(cc1-c1ccnn1C)-c1c(c(C(=O)N(C)CC3(C)COC3)nn1-c1ccsc1)CO2 [Compound 110, 7-Methoxy-8-(2-methyl-2H-pyrazol-3-yl)-1-thiophen-3-yl-1,4-dihydro-chromeno[4,3-c]pyrazole-3-carboxylic acid methyl-(3-methyl-oxetan-3-ylmethyl)-amide] | < 100 |  |
| COc1cc2c(cc1-c1ccn(C)n1)-c1c(c(C(=O)N3CCNCC34CC4)nn1-c1ccsc1)CO2 [Compound 171, (4,7-Diaza-spiro[2.5]oct-4-yl)-[7-methoxy-8-(1-methyl-1H-pyrazol-3-yl)-1-thiophen-3-yl-1,4-dihydro-chromeno[4,3-c]pyrazol-3-yl]-methanone] | 100 to 1000 |  |
| [2H]C([2H])([2H])C(C(=O)c1nn(-c2ccsc2)c2c1COc1cc(OC)c(-c3ccn(C)n3)cc1-2)C1(C)CNC1 (stereo not shown) [Compound 193] | > 5000 |  |
| [2H]C([2H])([2H])N(CCN1CCOC1=O)C(=O)c1nn(-c2ccsc2)c2c1COc1cc(OC)c(-c3cnn(C([2H])([2H])[2H])c3)cc1-2 [Compound 78] | < 100 |  |
| COc1cc2c(cc1OC(C)C)-c1c(c(C(=O)N(C)CCCN(C)C(=O)C3CCC3)nn1-c1ccsc1)CO2 [Compound 30] | 100 to 1000 |  |
| COc1cc2c(cc1C1=CCN(C)CC1)-c1c(c(C(=O)N(C)C(C)(C)C)nn1-c1ccsc1)CO2 [Compound 68, 7-Methoxy-8-(1-methyl-1,2,3,6-tetrahydro-pyridin-4-yl)-1-thiophen-3-yl-1,4-dihydro-chromeno[4,3-c]pyrazole-3-carboxylic acid tert-butyl-methyl-amide] | < 100 |  |
| COc1cc2c(cc1-c1cscn1)-c1c(c(C(=O)N(C)C(C)(C)C)nn1-c1ccsc1)CO2 [Compound 81, 7-Methoxy-8-thiazol-4-yl-1-thiophen-3-yl-1,4-dihydro-chromeno[4,3-c]pyrazole-3-carboxylic acid tert-butyl-methyl-amide] | < 100 |  |
| COc1cc2c(cc1CC(C)C)-c1c(c(C(=O)NC3(C)COC3)nn1-c1ccsc1)CO2 [Compound 145, 8-Isobutyl-7-methoxy-1-thiophen-3-yl-1,4-dihydro-chromeno[4,3-c]pyrazole-3-carboxylic acid (3-methyl-oxetan-3-yl)-amide] | 100 to 1000 |  |
| COc1cc2c(cc1-c1ccn(C)c1)-c1c(c(C(=O)N(C)CC3(C)COC3)nn1-c1ccsc1)CO2 [Compound 101, 7-Methoxy-8-(1-methyl-1H-pyrrol-3-yl)-1-thiophen-3-yl-1,4-dihydro-chromeno[4,3-c]pyrazole-3-carboxylic acid methyl-(3-methyl-oxetan-3-ylmethyl)-amide] | < 100 |  |
| COc1cc2c(cc1-c1cn[nH]c1)-c1c(c(C(=O)NCCN3CCOC3=O)nn1-c1ccsc1)CO2 [Compound 62, 7-Methoxy-8-(1H-pyrazol-4-yl)-1-thiophen-3-yl-1,4-dihydro-chromeno[4,3-c]pyrazole-3-carboxylic acid [2-(2-oxo-oxazolidin-3-yl)-ethyl]-amide] | 100 to 1000 |  |
| COc1cc2c(cc1-c1ccn(C)n1)-c1c(c(C(=O)N3CCOCC3C(F)(F)F)nn1-c1ccsc1)CO2 (stereo not shown) [Compound 144, [7-Methoxy-8-(1-methyl-1H-pyrazol-3-yl)-1-thiophen-3-yl-1,4-dihydro-chromeno[4,3-c]pyrazol-3-yl]-(3-trifluoromethyl-morpholin-4-yl)-methanone] | < 100 |  |
| COc1ccc2c(c1)OCc1c(C(=O)N(C)C(C)(C)C)nn(-c3ccsc3)c1-2 [Compound 133, 7-Methoxy-1-thiophen-3-yl-1,4-dihydro-chromeno[4,3-c]pyrazole-3-carboxylic Acid tert-butyl-methyl-amide] |  | 1000 to 5000 |
| COc1cc2c(cc1-c1cn(C)nc1C)-c1c(c(C(=O)N3CCOCC3(C)C)nn1-c1ccsc1)CO2 [Compound 123, (3,3-Dimethyl-morpholin-4-yl)-[8-(1,3-dimethyl-1H-pyrazol-4-yl)-7-methoxy-1-thiophen-3-yl-1,4-dihydro-chromeno[4,3-c]pyrazol-3-yl]-methanone] | < 100 |  |
